Bounds are passed on as bounds.

The values that follow come from ChEMBL document CHEMBL1132608, “Structure-activity relationship of diaryl phosphonate esters as potent irreversible dipeptidyl peptidase IV inhibitors” (J Med Chem, 1999).

The target of data set [1] is Dipeptidyl peptidase 4 (Homo sapiens, UniProt P27487).
Description: In vitro inhibition of human Dipeptidylpeptidase IV.
A short description of data set [2]: Functional stability in plasma was estimated by fitting the inverse of apparent IC50 values verses time with a single-exponential decay. In kind it is ADME, cell-free.
Data set [3] concerns the target T1, Prolyl endopeptidase (Homo sapiens) (UniProt P48147).
T1 sequence (whole entry): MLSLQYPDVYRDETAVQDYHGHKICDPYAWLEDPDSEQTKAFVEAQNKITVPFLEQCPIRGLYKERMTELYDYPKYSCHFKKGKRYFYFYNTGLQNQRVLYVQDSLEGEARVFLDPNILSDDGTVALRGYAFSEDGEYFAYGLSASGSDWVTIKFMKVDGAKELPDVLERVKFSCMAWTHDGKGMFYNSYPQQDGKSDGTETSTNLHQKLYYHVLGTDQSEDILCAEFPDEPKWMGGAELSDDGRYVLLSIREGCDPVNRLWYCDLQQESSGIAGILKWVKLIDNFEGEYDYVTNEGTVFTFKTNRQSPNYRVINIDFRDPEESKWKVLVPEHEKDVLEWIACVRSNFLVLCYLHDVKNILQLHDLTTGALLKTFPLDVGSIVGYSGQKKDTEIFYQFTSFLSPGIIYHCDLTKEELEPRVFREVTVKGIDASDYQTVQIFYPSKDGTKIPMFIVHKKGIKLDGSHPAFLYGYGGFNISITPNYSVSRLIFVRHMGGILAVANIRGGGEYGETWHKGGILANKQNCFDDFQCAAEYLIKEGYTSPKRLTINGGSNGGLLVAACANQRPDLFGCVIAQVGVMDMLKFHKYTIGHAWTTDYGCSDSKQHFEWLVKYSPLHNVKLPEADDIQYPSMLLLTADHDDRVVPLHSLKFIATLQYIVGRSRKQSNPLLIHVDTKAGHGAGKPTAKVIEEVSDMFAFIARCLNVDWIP
Put plainly: Effect on the activity of prolyl endopeptidase (PEP) is evaluated at the IC50 concentration for DPPIV.

Data set [4] deals with T1, Prolyl endopeptidase (Homo sapiens). Put plainly: Effect on the activity of prolyl endopeptidase (PEP) is evaluated at 1 mM.
Data set [5] concerns the target Dipeptidyl peptidase 4 (Mus musculus) (UniProt P28843).
Description: Effect on the activity of Dipeptidylpeptidase II (DPP II) is evaluated at the IC50 concentration for DPPIV.
Data set [6] is filed under the species Homo sapiens. The data set is described as follows: cells.
Data set [7] can be described thus: Effect on the activity of membrane alanyl aminopeptidase (MAAP) is evaluated at the IC50 concentration for DPPIV.
Data set [8] concerns the target Dipeptidyl peptidase 4 (Mus musculus) (UniProt P28843). This is another data set of the same source.
Description: Effect on the activity of Dipeptidylpeptidase II (DPP II) is evaluated at a concentration of 1 mM.
For data set [9], the species on record is Homo sapiens. Put plainly: Effect on the activity of elastase is evaluated at a concentration of 1 mM. It is filed as functional.
Data set [10] has as its target Aminopeptidase N (Homo sapiens) (UniProt P15144). The data set is described as follows: Effect on the activity of membrane alanyl aminopeptidase (MAAP) is evaluated at a concentration of 1 mM.
For data set [11], the species on record is Homo sapiens. The data set is described as follows: Effect on the activity of elastase was determined as IC50. It is filed as functional.

Sequence of Dipeptidyl peptidase 4 (P27487 whole entry): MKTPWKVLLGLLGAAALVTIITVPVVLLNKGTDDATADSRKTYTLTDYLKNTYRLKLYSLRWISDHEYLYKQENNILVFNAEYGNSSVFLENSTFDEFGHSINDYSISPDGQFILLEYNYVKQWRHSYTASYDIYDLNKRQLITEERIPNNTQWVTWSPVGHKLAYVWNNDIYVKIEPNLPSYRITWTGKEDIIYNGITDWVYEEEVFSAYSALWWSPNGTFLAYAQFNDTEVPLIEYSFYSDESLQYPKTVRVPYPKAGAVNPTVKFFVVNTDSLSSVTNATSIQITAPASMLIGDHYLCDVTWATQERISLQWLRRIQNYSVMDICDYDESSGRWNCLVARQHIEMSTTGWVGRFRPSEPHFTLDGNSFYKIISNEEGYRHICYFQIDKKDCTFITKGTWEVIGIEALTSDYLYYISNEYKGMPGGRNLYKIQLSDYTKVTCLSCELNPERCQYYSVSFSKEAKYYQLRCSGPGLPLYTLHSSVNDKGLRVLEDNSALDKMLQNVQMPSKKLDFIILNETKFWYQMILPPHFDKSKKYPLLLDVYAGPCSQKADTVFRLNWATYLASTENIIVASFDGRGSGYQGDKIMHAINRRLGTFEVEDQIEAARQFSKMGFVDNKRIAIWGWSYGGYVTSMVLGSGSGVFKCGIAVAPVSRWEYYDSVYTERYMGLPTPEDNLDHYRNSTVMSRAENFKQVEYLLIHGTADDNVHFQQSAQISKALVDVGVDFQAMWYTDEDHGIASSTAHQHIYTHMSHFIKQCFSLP
Sequence of Dipeptidyl peptidase 4 (Mus musculus) (P28843 whole entry, looked up): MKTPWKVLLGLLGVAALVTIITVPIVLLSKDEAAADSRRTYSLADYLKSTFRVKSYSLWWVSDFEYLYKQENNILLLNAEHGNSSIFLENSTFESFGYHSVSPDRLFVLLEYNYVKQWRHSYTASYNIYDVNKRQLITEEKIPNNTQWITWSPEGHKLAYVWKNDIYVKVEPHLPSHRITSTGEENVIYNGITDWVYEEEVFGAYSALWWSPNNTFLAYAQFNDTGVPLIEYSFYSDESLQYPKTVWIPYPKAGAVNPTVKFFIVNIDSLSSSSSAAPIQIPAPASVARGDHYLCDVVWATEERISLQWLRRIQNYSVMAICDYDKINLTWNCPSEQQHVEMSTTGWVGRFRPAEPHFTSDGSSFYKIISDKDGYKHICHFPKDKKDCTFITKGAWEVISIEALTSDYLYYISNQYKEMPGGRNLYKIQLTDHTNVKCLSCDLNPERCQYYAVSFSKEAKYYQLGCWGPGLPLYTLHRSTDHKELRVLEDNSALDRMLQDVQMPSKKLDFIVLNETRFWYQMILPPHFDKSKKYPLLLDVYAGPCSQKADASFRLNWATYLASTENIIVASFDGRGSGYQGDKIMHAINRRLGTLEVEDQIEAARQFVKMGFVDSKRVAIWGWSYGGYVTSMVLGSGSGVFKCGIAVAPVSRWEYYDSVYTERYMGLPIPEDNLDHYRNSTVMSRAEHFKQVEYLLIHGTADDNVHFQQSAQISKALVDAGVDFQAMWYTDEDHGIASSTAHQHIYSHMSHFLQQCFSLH
Sequence of Aminopeptidase N (Homo sapiens) (P15144 whole entry): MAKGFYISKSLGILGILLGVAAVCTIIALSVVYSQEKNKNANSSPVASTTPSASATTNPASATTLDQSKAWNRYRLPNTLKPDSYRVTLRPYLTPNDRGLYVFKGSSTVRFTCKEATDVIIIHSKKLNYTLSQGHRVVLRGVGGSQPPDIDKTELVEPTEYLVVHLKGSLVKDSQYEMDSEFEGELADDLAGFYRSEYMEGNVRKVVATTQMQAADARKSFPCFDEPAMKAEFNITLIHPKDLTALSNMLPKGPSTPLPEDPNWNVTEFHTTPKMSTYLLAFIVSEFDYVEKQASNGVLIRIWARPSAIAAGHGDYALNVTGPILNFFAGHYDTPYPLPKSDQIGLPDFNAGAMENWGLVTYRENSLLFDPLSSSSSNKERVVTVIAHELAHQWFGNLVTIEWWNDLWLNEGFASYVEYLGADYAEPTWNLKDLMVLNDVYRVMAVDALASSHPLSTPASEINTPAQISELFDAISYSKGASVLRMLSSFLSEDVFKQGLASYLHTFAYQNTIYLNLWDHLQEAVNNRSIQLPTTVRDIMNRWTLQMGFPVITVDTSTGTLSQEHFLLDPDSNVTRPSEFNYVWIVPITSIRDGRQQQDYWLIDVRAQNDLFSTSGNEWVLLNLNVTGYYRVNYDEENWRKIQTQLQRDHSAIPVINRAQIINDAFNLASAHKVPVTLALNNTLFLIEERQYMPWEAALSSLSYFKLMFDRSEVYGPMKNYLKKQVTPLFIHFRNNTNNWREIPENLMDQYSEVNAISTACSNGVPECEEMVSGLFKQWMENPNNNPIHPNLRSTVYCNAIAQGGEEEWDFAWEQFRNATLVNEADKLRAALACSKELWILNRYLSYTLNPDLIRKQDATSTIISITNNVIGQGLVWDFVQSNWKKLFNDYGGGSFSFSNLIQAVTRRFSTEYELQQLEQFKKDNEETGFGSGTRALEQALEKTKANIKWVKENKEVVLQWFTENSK

In general, IC50 refers to the concentration needed to halve the response being measured. As a reminder, the half-life is the time in which the quantity being followed falls by half. Consider `Cl.O=C([C@@H]1CCCN1)N1CCCC1P1(=O)Oc2ccccc2-c2ccccc2O1` (stereo not given in full), for which the IC50 in [1] was 31 µM. In addition, the half-life in data set [2] is 6 min.
For the compound `C[C@H](N)C(=O)Nc1ccc(OP(=O)(Oc2ccc(NC(=O)[C@@H](C)N)cc2)C2CCCN2C(=O)C2CCCN2)cc1.Cl` (stereo not given in full), the Specificity in data set [3] was 88; in data set [4], 47. For the same compound, the midpoint of inhibition in data set [1], the IC50, lay at 0.6 µM. In addition, the half-life in data set [2] was 8 min.
In the case of `COC(=O)CCNC(=O)c1ccc(OP(=O)(Oc2ccc(C(=O)NCCC(=O)OC)cc2)C2CCCN2C(=O)C2CCCN2)cc1.Cl` (stereo not given), the Specificity in data set [3] amounted to 83; in data set [4] it was 0. In addition, the half-life in data set [2] was 26 min.
With `CCCNC(=O)c1ccc(OP(=O)(Oc2ccc(C(=O)NCCC)cc2)C2CCCN2C(=O)C2CCCN2)cc1.Cl` (stereo not given), the Specificity came out at 97 in data set [3] and 5 in data set [4]. Further, in data set [2], the half-life is 12 min.
For `Cl.O=C([C@H]1CCCN1)N1CCCC1P(=O)(Oc1ccccc1)Oc1ccccc1` (stereo not given in full), the Specificity in data set [5] was 102; in [3], 107; in [7] it was 100; in data set [4], 71; in [8], 73; in [9] it was 82. Besides, in [2], the half-life is 300 min. In data set [6], the IC50 is 100 µM.
`Cl.NCC(=O)Nc1ccc(OP(=O)(Oc2ccc(NC(=O)CN)cc2)C2CCCN2C(=O)C2CCCN2)cc1` (stereo not given): in [2], the half-life was 28 min.
In the case of `CC(=O)Nc1ccc(OP(=O)(Oc2ccc(NC(C)=O)cc2)C2CCCN2C(=O)C2CCCN2)cc1.Cl` (stereo not given), the Specificity in [5] turned out to be 100; in [10] it was 96; in [3], 96; in [7], 99; in data set [4], 60; in data set [8] it was 83. The same compound came in with a Specificity in [9] of 105.
For `COC(=O)c1ccc(OP(=O)(Oc2ccc(C(=O)OC)cc2)C2CCCN2C(=O)C2CCCN2)cc1` (stereo not given), the Specificity in data set [3] is 73; in [4], 4.
Turning to `Cl.O=C(C1CCCN1)N1CCCC1P(=O)(Oc1ccc(O)cc1)Oc1ccc(O)cc1` (stereo not given), the half-inhibitory concentration (IC50) in data set [1] worked out at 190 µM. The half-life in data set [2] was above 200 min.
Regarding `CCOC(=O)CNC(=O)c1ccc(OP(=O)(Oc2ccc(C(=O)NCC(=O)OCC)cc2)C2CCCN2C(=O)C2CCCN2)cc1.Cl` (stereo not given), the Specificity in data set [5] was 78; in [10], 94; in [3] it was 85; in [4], 1; in data set [8], 66; in data set [9], 6. For the same compound, the half-life in data set [2] was 35 min. Further, in data set [11], 102 µM corresponded to half-maximal inhibition (IC50).
As for `Cl.O=C(CNC(=O)c1ccccc1)Nc1ccc(OP(=O)(Oc2ccc(NC(=O)CNC(=O)c3ccccc3)cc2)C2CCCN2C(=O)C2CCCN2)cc1` (stereo not given), the Specificity in data set [3] is 92; in data set [4] it was 32. The half-life in data set [2] was 93 min.
Turning to `CC(=O)Nc1cccc(OP(=O)(Oc2cccc(NC(C)=O)c2)C2CCCN2C(=O)C2CCCN2)c1.Cl` (stereo not given), the half-life in data set [2] was 220 min.
`O=C(C1CCCN1)N1CCCC1P(=O)(OCC(Cl)(Cl)Cl)OCC(Cl)(Cl)Cl` (stereo not given) showed an IC50 in [1] of 1800 µM.
In data set [1], `O=C(C1CCCN1)N1CCCC1P(=O)(OCC(F)(F)F)OCC(F)(F)F` (stereo not given) registered a concentration for half-maximal inhibition (IC50) of 9100 µM.
With `CS(=O)(=O)Nc1ccc(OP(=O)(Oc2ccc(NS(C)(=O)=O)cc2)C2CCCN2C(=O)C2CCCN2)cc1.Cl` (stereo not given), the Specificity in data set [3] was 73; in data set [4], 4. Moreover, in [2], the half-life is 150 min.
In turn, `Cl.NC(=O)Nc1cccc(OP(=O)(OC2=CC=CC(NC(N)=O)C2)C2CCCN2C(=O)C2CCCN2)c1` (stereo not given) returned an IC50 in data set [1] of 2.3 µM.
As for `COC(=O)C(Cc1ccc(OP(=O)(Oc2ccc(CC(NC(C)=O)C(=O)OC)cc2)C2CCCN2C(=O)C2CCCN2)cc1)NC(C)=O` (stereo not given), the Specificity is 102 in data set [3] and 35 in [4].
In data set [1], `Cl.O=C(C1CCCN1)N1CCCC1P(=O)(Oc1ccc(NN2CCCC2)cc1)Oc1ccc(NN2CCCC2)cc1` (stereo not given) returned an IC50 of 5 µM.
`COc1ccc(OP(=O)(Oc2ccc(OC)cc2)C2CCCN2C(=O)C2CCCN2)cc1.Cl` (stereo not given) registered an IC50 in [1] of 22 µM. Also, the half-life in data set [2] is 470 min.
